From ChEMBL document CHEMBL1136792, “Synthesis of chiral 1-[omega-(4-chlorophenoxy)alkyl]-4-methylpiperidines and their biological evaluation at sigma1, sigma2, and sterol delta8-delta7 isomerase sites” (J Med Chem, 2003)

Assays:
[1] = molecular target: T1, 3-beta-hydroxysteroid-Delta(8),Delta(7)-isomerase (Cavia porcellus, UniProt Q60490); test: Inhibition of [3H]-emopamil binding to Sterol delta 8-delta 7 isomerase in guinea pig liver membrane; format: cell membranes
T1 sequence (Q60490 whole entry): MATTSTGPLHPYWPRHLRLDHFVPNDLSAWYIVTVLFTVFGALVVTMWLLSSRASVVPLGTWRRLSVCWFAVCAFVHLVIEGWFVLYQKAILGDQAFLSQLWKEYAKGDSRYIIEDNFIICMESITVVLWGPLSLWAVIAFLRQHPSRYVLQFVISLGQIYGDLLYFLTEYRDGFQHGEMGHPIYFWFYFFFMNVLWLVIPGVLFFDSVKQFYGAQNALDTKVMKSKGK

Sigma 2 receptor = test: Inhibition of [3H]DTG binding to Sigma receptor type 2 in rat liver membrane; format: cell membranes
[2] = molecular target: Sigma non-opioid intracellular receptor 1 (Homo sapiens) (UniProt Q99720); test: Relative affinity for sigma-2 over sigma-1 receptors
Sigma non-opioid intracellular receptor 1 (Homo sapiens), sequence (Q99720 whole entry): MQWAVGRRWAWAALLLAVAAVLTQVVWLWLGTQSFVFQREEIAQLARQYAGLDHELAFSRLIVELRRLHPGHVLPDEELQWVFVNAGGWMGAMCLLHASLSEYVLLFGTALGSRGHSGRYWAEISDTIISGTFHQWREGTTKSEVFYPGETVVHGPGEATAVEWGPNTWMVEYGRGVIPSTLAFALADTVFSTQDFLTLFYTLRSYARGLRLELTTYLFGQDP

Cavia porcellus = species: Cavia porcellus; test: Relative affinity for sterol delta-(8)-delta-(7) isomerase over sigma-1 receptor

Row | Ki [1] [nM] | Ki (Sigma 2 receptor) [nM] | Ratio [2] | Ratio (Cavia porcellus) | SMILES
1 | 37 | 31.6 | – | – | CC1CCN([C@@H](C)CCOc2ccc(Cl)cc2)CC1
2 | 9.65 | 38.6 | – | – | CC1CCN(CCCOc2ccc(Cl)cc2)CC1
3 | 18.7 | 62 | 36 | 11 | CC1CCN(C[C@@H](C)COc2ccc(Cl)cc2)CC1
4 | 14.5 | 40.8 | 37 | 13 | CC1CCN(C[C@H](C)COc2ccc(Cl)cc2)CC1
5 | 35.1 | 332 | – | – | CC1CCN(C[C@H](C)Oc2ccc(Cl)cc2)CC1
6 | 7.79 | 15.1 | – | – | CC1CCN([C@H](C)CCOc2ccc(Cl)cc2)CC1
7 | – | 554 | – | – | C(/C=C/c1ccc2c(c1)OCO2)=C\CN1CCCCC1
8 | 3.7 | 239 | – | – | CC1CCN(CCOc2ccc(Cl)cc2)CC1
9 | 12 | 65.9 | – | – | CC1CCN(CC[C@H](C)Oc2ccc(Cl)cc2)CC1
10 | 2.71 | – | – | – | CC(C(O)c1ccc(O)cc1)N1CCC(Cc2ccccc2)CC1 (racemic) [IFENPRODIL]
11 | 30.1 | 13.9 | – | – | CC1CCN(CC[C@@H](C)Oc2ccc(Cl)cc2)CC1
12 | 27.5 | 52.3 | 44 | 23 | CC1CCN([C@H](C)COc2ccc(Cl)cc2)CC1
13 | 3.38 | 318 | – | – | CC1CCN(C[C@@H](C)Oc2ccc(Cl)cc2)CC1
14 | 3.73 | 186 | 547 | 11 | CC1CCN([C@@H](C)COc2ccc(Cl)cc2)CC1
